# Data: article PMC6214572, “Carboxypeptidase O is a lipid droplet-associated enzyme able to cleave both acidic and polar C-terminal amino acids” (PLoS ONE, 2018)
# Target: T1, Carboxypeptidase O (CPO) (Homo sapiens, UniProt Q8IVL8, W297L)
# T1 construct: full-length GPI-anchored enzyme without prodomain, (plasmid pcDNA-CPO in HEK293T); Triton X-100 cell lysate
# T1 sequence (Q8IVL8 21-352 W297L): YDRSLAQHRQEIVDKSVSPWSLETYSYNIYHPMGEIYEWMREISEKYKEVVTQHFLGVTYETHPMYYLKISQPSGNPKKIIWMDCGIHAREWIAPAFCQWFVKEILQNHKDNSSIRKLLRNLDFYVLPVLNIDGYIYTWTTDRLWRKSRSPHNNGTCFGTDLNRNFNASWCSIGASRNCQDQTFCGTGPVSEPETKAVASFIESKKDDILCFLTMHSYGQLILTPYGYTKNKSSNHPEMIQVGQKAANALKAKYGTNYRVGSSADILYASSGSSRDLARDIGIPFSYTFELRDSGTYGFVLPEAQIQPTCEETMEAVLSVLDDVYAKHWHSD
# Assay: absorbance decrease at […] nm after […] min
# Type: biochemical
# Settings: lysate of transfected HEK293T cells; 0.5 mM FA-EE, 37°C; inactive mutant
structure (smiles),measurement,value
O=C(O)CC[C@H](NC(=O)[C@H](CCC(=O)O)NC(=O)C=Cc1ccco1)C(=O)O [FA-Glu-Glu],no enzymatic activity,"The W297L CPO mutant exhibits no enzymatic activity, although fully expressed"
